Source: patent US20240148744A1 (Celgene Corporation, priority 2021, published 2024)

These molecules were tested on Onchocerca gutturosa adult male worms (assay: Onchocerca gutturosa in vitro screening model: adult worm motility score and MTT/formazan viability). Settings: read-out: O. gutt Activity class.
Format: cell-based

Question: For `O=S(=O)(Nc1cccc2cccnc12)c1ccc(F)cn1` [Compound 247, 5-fluoro-N-(quinolin-8-yl)pyridine-2-sulfonamide], which IC50 is on record?
Answer: < 200 nM

Question: With `CC(C)n1ccnc1S(=O)(=O)Nc1cccc2c1CN(C1CC1)C2` [Compound 33, N-(2-cyclo-propyliso-indolin-4-yl)-1-isopropyl-1H-imidazole-2-sulfonamide] as the molecule, how does the IC50 read?
Answer: 200 to 500 nM

Question: With `O=S(=O)(Nc1cccc2cccnc12)c1ncc[nH]1` [Compound 243, N-(quinolin-8-yl)-1H-imidazole-2-sulfonamide] as the molecule, how does the IC50 read?
Answer: 500 to 5000 nM

Question: For `Cc1cccnc1S(=O)(=O)Nc1cccc2c1CN(C)C2` [Compound 51, 3-methyl-N-(2-methyl-isoindolin-4-yl)pyridine-2-sulfonamide], which IC50 is on record?
Answer: < 200 nM

Question: With `O=S(=O)(Nc1cccc2cccnc12)c1cccnc1` [Compound 277, N-(quinolin-8-yl)pyridine-3-sulfonamide] as the molecule, how does the IC50 read?
Answer: 500 to 5000 nM

Question: `CN(c1cccc2cccnc12)S(=O)(=O)c1ccccn1` [Compound 256, N-methyl-N-(quinolin-8-yl)pyridine-2-sulfonamide] was tested. Which IC50 did it give?
Answer: 500 to 5000 nM

Question: Which IC50 does the source give for `Cc1cccnc1S(=O)(=O)Nc1cccc2c(F)ccnc12` [Compound 12, N-(4-fluoro-quinolin-8-yl)-3-methylpyr-idine-2-sulfonamide] here?
Answer: 200 to 500 nM

Question: How did the IC50 turn out when `Cn1nccc1S(=O)(=O)Nc1cccc2cccnc12` [Compound 252, 1-methyl-N-(quinolin-8-yl)-1H-pyrazole-5-sulfonamide] was run?
Answer: 500 to 5000 nM

Question: How did the IC50 turn out when `N#Cc1cccc(S(=O)(=O)Nc2cccc3cccnc23)c1` [Compound 250, 3-cyano-N-(quinolin-8-yl)benzene-sulfonamide] was run?
Answer: 500 to 5000 nM

Question: `O=S(=O)(Nc1cccc2cccnc12)c1ccncn1` [Compound 199, N-(quinolin-8-yl)pyrimidine-4-sulfonamide] was tested. Which IC50 did it give?
Answer: 500 to 5000 nM

Question: Which IC50 does the source give for `O=S(=O)(Nc1cccc2cccnc12)c1ccc2ccccc2n1` [Compound 239, N-(quinolin-8-yl)quinoline-2-sulfonamide] here?
Answer: < 200 nM

Question: Which IC50 does the source give for `O=S(=O)(Nc1c(Cl)ccc2cccnc12)c1cncc(N2CCCC2)n1` [Compound 74, N-(7-chloro-quinolin-8-yl)-6-(pyrrol-idin-1-yl)pyr-azine-2-sulfonamide] here?
Answer: 200 to 500 nM

Question: `Cc1cccnc1S(=O)(=O)Nc1cccc2c1CN(C1CC1)C2` [Compound 41, N-(2-cyclo-propyliso-indolin-4-yl)-3-methylpyr-idine-2-sulfonamide] was tested. Which IC50 did it give?
Answer: 500 to 5000 nM

Question: With `Cc1cccnc1S(=O)(=O)Nc1cccc2ncc(N3CCOCC3)cc12` [Compound 24, 3-methyl-N-(3-morpho-linoquinolin-5-yl)pyridine-2-sulfonamide] as the molecule, how does the IC50 read?
Answer: 500 to 5000 nM

Question: For `COc1cc(OC)cc(S(=O)(=O)Nc2cc(F)cc3cccnc23)c1` [Compound 128, N-(6-fluoro-quinolin-8-yl)-3,5-dimethoxy-benzenesulfon-amide], which IC50 is on record?
Answer: < 200 nM

Question: Which IC50 does the source give for `Cc1cc(C)cc(S(=O)(=O)Nc2cc(F)cc3cccnc23)c1` [Compound 91, N-(6-fluoro-quinolin-8-yl)-3,5-dimethyl-benzene-sulfonamide] here?
Answer: < 200 nM

Question: `Cc1ccc(NS(=O)(=O)c2ccco2)c2ncccc12` [Compound 65, N-(5-methyl-quinolin-8-yl)furan-2-sulfonamide] was tested. Which IC50 did it give?
Answer: 500 to 5000 nM

Question: How did the IC50 turn out when `Cc1nc(S(=O)(=O)Nc2cccc3cccnc23)c(C#N)c(C)c1Cl` [Compound 175, 5-chloro-3-cyano-4,6-dimethyl-N-(quinolin-8-yl)pyridine-2-sulfonamide] was run?
Answer: 200 to 500 nM

Question: `Cc1cnc(S(=O)(=O)Nc2cccc3cccnc23)nc1` [Compound 198, 5-methyl-N-(quinolin-8-yl)pyrimidine-2-sulfonamide] was tested. Which IC50 did it give?
Answer: 200 to 500 nM

Question: With `O=S(=O)(Nc1cccc2cccnc12)c1c[nH]c2ncccc12` [Compound 204, N-(quinolin-8-yl)-1H-pyrrolo[2,3-b]pyridine-3-sulfonamide] as the molecule, how does the IC50 read?
Answer: 500 to 5000 nM

Question: Which IC50 does the source give for `O=S(=O)(Nc1cccc2cccnc12)c1ccc2ccccc2c1` [Compound 282, N-(quinolin-8-yl)naphthalene-2-sulfonamide] here?
Answer: 200 to 500 nM

Question: For `CN(C)c1cccnc1S(=O)(=O)Nc1cccc2c1CN(C1CC1)C2` [Compound 47, N-(2-cyclo-propyliso-indolin-4-yl)-3-(dimethyl-amino)pyr-idine-2-sulfonamide], which IC50 is on record?
Answer: 500 to 5000 nM

Question: With `Cc1cccnc1S(=O)(=O)Nc1cccc2ccc(-c3ccccc3)nc12` [Compound 22, 3-methyl-N-(2-phenyl-quinolin-8-yl)pyridine-2-sulfonamide] as the molecule, how does the IC50 read?
Answer: 500 to 5000 nM

Question: How did the IC50 turn out when `N#Cc1cccc(S(=O)(=O)Nc2cccc3cccnc23)n1` [Compound 162, 6-cyano-N-(quinolin-8-yl)pyridine-2-sulfonamide] was run?
Answer: 500 to 5000 nM

Question: For `CCn1ccnc1S(=O)(=O)Nc1cccc2cccnc12` [Compound 240, 1-ethyl-N-(quinolin-8-yl)-1H-imidazole-2-sulfonamide], which IC50 is on record?
Answer: < 200 nM

Question: Which IC50 does the source give for `O=S(=O)(Nc1cccc2cccnc12)c1ccccc1C(F)(F)F` [Compound 274, N-(quinolin-8-yl)-2-(trifluoromethyl) benzene-sulfonamide] here?
Answer: < 200 nM

Question: For `COc1ccc(S(=O)(=O)Nc2cccc3cccnc23)nc1` [Compound 235, 5-methoxy-N-(quinolin-8-yl)pyridine-2-sulfonamide], which IC50 is on record?
Answer: < 200 nM

Question: How did the IC50 turn out when `Cc1ccnc(S(=O)(=O)Nc2cccc3cccnc23)c1` [Compound 234, 4-methyl-N-(quinolin-8-yl)pyridine-2-sulfonamide] was run?
Answer: < 200 nM

Question: `CCn1ccnc1S(=O)(=O)Nc1ccc(OC)c2cccnc12` [Compound 57, 1-ethyl-N-(5-methoxyquin-olin-8-yl)-1H-imidazole-2-sulfonamide] was tested. Which IC50 did it give?
Answer: 500 to 5000 nM

Question: With `Cn1ccnc1S(=O)(=O)Nc1ccc(F)c2cccnc12` [Compound 133, N-(5-fluoro-quinolin-8-yl)-1-methyl-1H-imidazole-2-sulfonamide] as the molecule, how does the IC50 read?
Answer: < 200 nM

Question: How did the IC50 turn out when `Cc1cccnc1S(=O)(=O)Nc1cccc2c1NCCC2` [Compound 56, 3-methyl-N-(1,2,3,4-tetra-hydroquinolin-8-yl)pyridine-2-sulfonamide] was run?
Answer: 500 to 5000 nM

Question: With `COc1cccc(S(=O)(=O)Nc2cccc3cccnc23)n1` [Compound 224, 6-methoxy-N-(quinolin-8-yl)pyridine-2-sulfonamide] as the molecule, how does the IC50 read?
Answer: 200 to 500 nM

Question: For `Cc1cccnc1S(=O)(=O)Nc1cccc2c1N(C1CC1)CCC2` [Compound 38, N-(1-cyclo-propyl-1,2,3,4-tetra-hydroquin-olin-8-yl)-3-methylpyr-idine-2-sulfonamide], which IC50 is on record?
Answer: 500 to 5000 nM

Question: Which IC50 does the source give for `COc1cncc(S(=O)(=O)Nc2c(Cl)ccc3cccnc23)n1` [Compound 81, N-(7-chloro-quinolin-8-yl)-6-meth-oxypyrazine-2-sulfonamide] here?
Answer: 500 to 5000 nM

Question: Which IC50 does the source give for `Cc1cccnc1S(=O)(=O)Nc1cccc2ccc(N3CCC3)nc12` [Compound 23, N-(2-(azet-idin-1-yl)-quinolin-8-yl)-3-meth-ylpyridine-2-sulfonamide] here?
Answer: 500 to 5000 nM

Question: For `O=S(=O)(Nc1cccc2cccnc12)c1cccc(F)c1` [Compound 283, 3-fluoro-N-(quinolin-8-yl)benzene-sulfonamide], which IC50 is on record?
Answer: 200 to 500 nM

Question: How did the IC50 turn out when `Cc1nc(C(F)(F)F)ccc1S(=O)(=O)Nc1cccc2cccnc12` [Compound 173, 2-methyl-N-(quinolin-8-yl)-6-(trifluoromethyl) pyridine-3-sulfonamide] was run?
Answer: 500 to 5000 nM

Question: Which IC50 does the source give for `N#Cc1cccc(S(=O)(=O)Nc2c(Cl)ccc3cccnc23)c1` [Compound 82, N-(7-chloro-quinolin-8-yl)-3-cyano-benzene sulfonamide] here?
Answer: 500 to 5000 nM

Question: With `CN(C)c1cncc(S(=O)(=O)Nc2c(Cl)ccc3cccnc23)n1` [Compound 50, N-(7-chloro-quinolin-8-yl)-6-(dimeth-ylamino)pyr-azine-2-sulfonamide] as the molecule, how does the IC50 read?
Answer: 500 to 5000 nM

Question: Which IC50 does the source give for `CN1CCc2cccc(NS(=O)(=O)c3ncccc3C3CC3)c2C1` [Compound 37, 3-cyclo-propyl-N-(2-methyl-1,2,3,4-tetra-hydroisoquin-olin-8-yl)pyr-idine-2-sulfonamide] here?
Answer: 200 to 500 nM

Question: With `O=S(=O)(Nc1c(Cl)ccc2cccnc12)c1ncccc1C1CC1` [Compound 69, N-(7-chloro-quinolin-8-yl)-3-cyclo-propylpyr-idine-2-sulfonamide] as the molecule, how does the IC50 read?
Answer: < 200 nM

Question: With `O=S(=O)(Nc1c(Cl)cc(N2CCOCC2)c2cccnc12)c1ncccc1C1CC1` [Compound 139, N-(7-chloro-5-morpholino-quinolin-8-yl)-3-cyclopropyl-pyridine-2-sulfonamide] as the molecule, how does the IC50 read?
Answer: < 200 nM

Question: How did the IC50 turn out when `CN(C)c1cnc(S(=O)(=O)Nc2c(Cl)ccc3cccnc23)cn1` [Compound 49, N-(7-chloro-quinolin-8-yl)-5-(dimeth-ylamino)pyr-azine-2-sulfonamide] was run?
Answer: 500 to 5000 nM

Question: Which IC50 does the source give for `Cc1ccc(S(=O)(=O)Nc2cc(C)cc3cccnc23)cc1` [Compound 93, 4-methyl-N-(6-methyl-quinolin-8-yl)benzene-sulfonamide] here?
Answer: 200 to 500 nM

Question: With `O=S(=O)(Nc1cccc2cccnc12)N1CCCCC1` [Compound 205, N-(quinolin-8-yl)piperidine-1-sulfonamide] as the molecule, how does the IC50 read?
Answer: 500 to 5000 nM

Question: `O=S(=O)(Nc1ccc(N2CCOCC2)c2cccnc12)c1cn[nH]c1` [Compound 62, N-(5-morph-olinoquin-olin-8-yl)-1H-pyrazole-4-sulfonamide] was tested. Which IC50 did it give?
Answer: 500 to 5000 nM

Question: `Cc1cccnc1S(=O)(=O)Nc1cccc2c1CN(C1CC1)CC2` [Compound 36, N-(2-cyclo-propyl-1,2,3,4-tetra-hydroisoquin-olin-8-yl)-3-methylpyr-idine-2-sulfonamide] was tested. Which IC50 did it give?
Answer: 500 to 5000 nM

Question: With `COc1ccc2cccnc2c1NS(=O)(=O)c1ncccc1C1CC1` [Compound 141, 3-cyclopropyl-N-(7-methoxy-quinolin-8-yl)-pyridine-2-sulfonamide] as the molecule, how does the IC50 read?
Answer: < 200 nM

Question: How did the IC50 turn out when `Cn1cc(S(=O)(=O)Nc2ccc(F)c3cccnc23)cn1` [Compound 59, N-(5-fluoro-quinolin-8-yl)-1-meth-yl-1H-pyr-azole-4-sulfonamide] was run?
Answer: 500 to 5000 nM

Question: How did the IC50 turn out when `O=S(=O)(Nc1cccc2cccnc12)c1ccc(Cl)cc1` [Compound 285, 4-chloro-N-(quinolin-8-yl)benzene-sulfonamide] was run?
Answer: < 200 nM

Question: How did the IC50 turn out when `O=S(=O)(Nc1cccc2cncnc12)c1ccccn1` [Compound 202, N-(quinazolin-8-yl)pyridine-2-sulfonamide] was run?
Answer: 500 to 5000 nM

Question: How did the IC50 turn out when `Cn1nc(N2CCOCC2)cc1S(=O)(=O)Nc1cccc2cccnc12` [Compound 192, 1-methyl-3-morpholino-N-(quinolin-8-yl)-1H-pyrazole-5-sulfonamide] was run?
Answer: 500 to 5000 nM

Question: With `O=S(=O)(Nc1cccc2cccnc12)c1ncccc1O` [Compound 219, 3-hydroxy-N-(quinolin-8-yl)pyridine-2-sulfonamide] as the molecule, how does the IC50 read?
Answer: 500 to 5000 nM
